Measurements from PubChem BioAssay (NCI).
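Where inhibition never reached the appropriate level, the endpoint shown equals the highest concentration tested. Otherwise, values were interpolated linearly from a five-concentration, 48-hour dose response in 96-well plates. Abbreviation: GI50, concentration required for 50% inhibition of growth. TGI: concentration producing complete growth inhibition.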

Tests used:
Assay in all cases: DTP human tumour cell line panel, 48 h
[1] = tested on: 786-0 renal
[2] = tested on: UACC-62 melanoma
[3] = tested on: HS 578T breast
[4] = tested on: NCI-H522 lung
[5] = tested on: RXF 393 renal
[6] = tested on: A498 renal
[7] = tested on: SK-MEL-2 melanoma
[8] = tested on: MDA-MB-435
[9] = tested on: K-562 leukemia
[10] = tested on: MOLT-4 leukemia

## Cn1cc(-c2cnc3ccc(NC(=O)Nc4ccc(F)c(Br)c4)cc3n2)cn1
[1]
  GI50: 1.98 µM
  TGI: 5.9 µM
[2]
  GI50: 1.68 µM
  TGI: 3.74 µM
[3]
  GI50: 2 µM
  TGI: 5.15 µM
[4]
  GI50: 1.71 µM
  TGI: 4.75 µM
[5]
  GI50: 1.73 µM
  TGI: 4.67 µM
[6]
  GI50: 1.51 µM
  TGI: 4.04 µM
[7]
  GI50: 1.97 µM
  TGI: 4.13 µM
[8]
  GI50: 1.81 µM
  TGI: 3.95 µM

## O=C(O)CCCCC(CCSCc1ccccc1)SCc1ccccc1 (centres undefined)
[1]
  GI50: 64.2 µM
  TGI: > 100 µM
[2]
  GI50: 21.5 µM
  TGI: 60.9 µM
[9]
  GI50: 44.5 µM
  TGI: > 100 µM
[3]
  GI50: 50.3 µM
  TGI: > 100 µM
[4]
  GI50: 34.1 µM
  TGI: > 100 µM
[5]
  GI50: 27.3 µM
  TGI: > 100 µM
[6]
  GI50: > 38.9 µM
  TGI: > 96.7 µM
[7]
  GI50: 27.5 µM
  TGI: 67.6 µM
[10]
  GI50: 47 µM
  TGI: > 100 µM
[8]
  GI50: > 73.7 µM
  TGI: > 100 µM

## CCOc1cccc(/C=N/NC(=O)c2ccccc2Nc2ccnc(C(F)(F)F)c2)c1O
[1]
  GI50: 1.32 µM
  TGI: 24 µM
[2]
  GI50: 0.407 µM
  TGI: 14.7 µM
[9]
  GI50: 0.322 µM
  TGI: 10.4 µM
[3]
  GI50: 6.92 µM
  TGI: > 100 µM
[4]
  GI50: 3.47 µM
  TGI: > 63 µM
[5]
  GI50: 11.5 µM
  TGI: > 100 µM
[6]
  GI50: 20.1 µM
  TGI: > 74.8 µM
[7]
  GI50: 3.4 µM
  TGI: > 50.4 µM
[10]
  GI50: 0.116 µM
  TGI: 0.459 µM
[8]
  GI50: 1.07 µM
  TGI: 77.4 µM

## Cc1nc2cccc([N+](=O)[O-])c2c(NCCCN(C)C)c1C
[1]
  TGI: > 100 µM
[2]
  TGI: > 100 µM
[9]
  TGI: > 76.9 µM
[3]
  TGI: > 100 µM
[4]
  TGI: 40.6 µM
[5]
  TGI: > 100 µM
[6]
  TGI: > 54 µM
[7]
  TGI: > 85.6 µM
[10]
  TGI: > 85.1 µM
[8]
  TGI: > 100 µM

## O=C1NNC=Nc2ccc(cc2)S(=O)(=O)c2ccc(cc2)N=CNNC1=O
[1]
  TGI: > 100 µM
[2]
  TGI: > 100 µM
[9]
  TGI: > 100 µM
[3]
  TGI: > 100 µM
[4]
  TGI: > 100 µM
[5]
  TGI: > 100 µM
[6]
  TGI: > 100 µM
[7]
  TGI: > 100 µM
[10]
  TGI: > 100 µM
[8]
  TGI: > 100 µM

## CN(C)CCC(=O)N1C/C(=C/c2ccccc2)C(=O)/C(=C\c2ccccc2)C1
[1]
  TGI: 3.62 µM
[2]
  TGI: 3.77 µM
[9]
  TGI: 0.973 µM
[3]
  TGI: 20.3 µM
[4]
  TGI: 0.977 µM
[5]
  TGI: 4.94 µM
[6]
  TGI: 6.75 µM
[7]
  TGI: 8.74 µM
[10]
  TGI: 1.46 µM
[8]
  TGI: 3.85 µM

## N#C/C(=C1C=C/C(=N/O)C(Br)=C/1)c1ccccc1
[1]
  GI50: 3.19 µM
  TGI: 14.7 µM
[2]
  GI50: 2.97 µM
  TGI: 16 µM
[9]
  GI50: 0.878 µM
  TGI: 12.6 µM
[3]
  GI50: 2.52 µM
  TGI: 8.09 µM
[4]
  GI50: 1.87 µM
  TGI: 5.23 µM
[5]
  GI50: 3.01 µM
  TGI: 11.5 µM
[6]
  GI50: 2.57 µM
  TGI: 16.7 µM
[7]
  GI50: 3.64 µM
  TGI: 13.9 µM
[10]
  GI50: 2.93 µM
  TGI: 11.5 µM
[8]
  GI50: 0.495 µM
  TGI: 2.32 µM

## Nc1ccn(C2O[C@H](CO)[C@@H](O)[C@@H]2O)c(=O)n1 (some centres undefined)
[1]
  TGI: > 100 µM
[2]
  TGI: > 100 µM
[3]
  TGI: > 100 µM
[4]
  GI50: 26.5 µM
  TGI: > 100 µM
[5]
  TGI: > 100 µM
[6]
  TGI: > 100 µM
[7]
  TGI: > 100 µM
[10]
  GI50: 16.1 µM
  TGI: > 100 µM
[8]
  TGI: > 100 µM

## O=C1/C(=C/c2ccc(Br)cc2)C=C(c2ccccc2)N1CCc1ccccc1
[1]
  GI50: 0.647 µM
  TGI: 2.8 µM
[9]
  GI50: 2.63 µM
  TGI: 20.5 µM
[3]
  GI50: 0.831 µM
  TGI: 5.33 µM
[4]
  GI50: 6.54 µM
  TGI: 87.1 µM
[5]
  GI50: 1.26 µM
  TGI: 3.78 µM
[6]
  GI50: 0.652 µM
  TGI: 5.44 µM
[7]
  GI50: 4.47 µM
  TGI: 27.2 µM
[10]
  GI50: 18.4 µM
  TGI: > 100 µM
[8]
  GI50: 8.38 µM
  TGI: > 100 µM

## COC(=O)CCCCN=Cc1c(O)c(O)c(C(C)C)c2cc(C)c(-c3c(C)cc4c(C(C)C)c(O)c(O)c(C=NCCCCC(=O)OC)c4c3O)c(O)c12
[1]
  GI50: 1.34 µM
  TGI: 15.1 µM
[9]
  GI50: 0.64 µM
  TGI: 4.09 µM
[3]
  GI50: 1.49 µM
  TGI: > 32.5 µM
[4]
  GI50: 0.838 µM
  TGI: 4.43 µM
[5]
  GI50: 0.596 µM
  TGI: 3.18 µM
[6]
  GI50: 1.79 µM
  TGI: > 32.5 µM
[7]
  GI50: 1.38 µM
  TGI: > 32.5 µM
[10]
  GI50: 0.783 µM
  TGI: 19.2 µM
[8]
  GI50: 1.46 µM
  TGI: > 32.5 µM

## CN1CCN(Cc2ccc(NC(=O)c3cncc(C#Cc4cnc(N)c5ccc(C#N)cc45)c3)cc2C(F)(F)F)CC1
[1]
  GI50: 0.111 µM
  TGI: 1.01 µM
[2]
  GI50: 0.0279 µM
  TGI: 0.422 µM
[3]
  GI50: 0.0217 µM
  TGI: 0.406 µM
[4]
  GI50: 0.088 µM
  TGI: 1.69 µM
[5]
  GI50: 0.0162 µM
  TGI: 0.151 µM
[6]
  GI50: 0.0208 µM
  TGI: 0.478 µM
[7]
  GI50: 0.0217 µM
  TGI: 0.353 µM
[10]
  GI50: 0.028 µM
  TGI: 1.4 µM
[8]
  GI50: 0.0286 µM
  TGI: 0.675 µM

## Cc1ccc(S(=O)(=O)N(CCOc2ccc(/C(N)=N/Cl)cc2)CCOc2ccc(/C(N)=N\Cl)cc2)cc1
[1]
  GI50: 34.6 µM
  TGI: > 100 µM
[2]
  GI50: 19 µM
  TGI: 64.5 µM
[9]
  GI50: 4.17 µM
  TGI: 24 µM
[3]
  GI50: 4.28 µM
  TGI: 22.7 µM
[4]
  GI50: 13.3 µM
  TGI: 76.4 µM
[6]
  GI50: 52.3 µM
  TGI: > 100 µM
[7]
  GI50: > 100 µM
  TGI: > 100 µM
[10]
  GI50: 30.6 µM
  TGI: > 100 µM
[8]
  GI50: 21.8 µM
  TGI: > 100 µM
